Six compounds from paper PMC8865417, “Receptor Interaction Profiles of 4-Alkoxy-3,5-Dimethoxy-Phenethylamines (Mescaline Derivatives) and Related Amphetamines” (Frontiers in Pharmacology, 2022) can be followed below.

The target of assay [1] is T1, h5-HT2A receptor (Homo sapiens, UniProt P28223).
T1 construct: expressed in transfected cells; host or cells: HEK 293 cells (membrane preparations)
In words: Radioligand binding at h5-HT2A receptor ([3H]ketanserin). Conditions: for Selectivity 5-HT2A vs. 5-HT1A / Selectivity 5-HT2A vs. 5-HT2C: binding ratio; for Ki: h5-HT2A Receptor binding Ki ± SD, [3H]ketanserin, mean ± SD.

The target of assay [2] is T2, h5-HT2C receptor (Homo sapiens, UniProt P28335).
T2 construct: expressed in transfected cells; host or cells: HEK 293 cells (membrane preparations)
T2 sequence (P28335 33-458): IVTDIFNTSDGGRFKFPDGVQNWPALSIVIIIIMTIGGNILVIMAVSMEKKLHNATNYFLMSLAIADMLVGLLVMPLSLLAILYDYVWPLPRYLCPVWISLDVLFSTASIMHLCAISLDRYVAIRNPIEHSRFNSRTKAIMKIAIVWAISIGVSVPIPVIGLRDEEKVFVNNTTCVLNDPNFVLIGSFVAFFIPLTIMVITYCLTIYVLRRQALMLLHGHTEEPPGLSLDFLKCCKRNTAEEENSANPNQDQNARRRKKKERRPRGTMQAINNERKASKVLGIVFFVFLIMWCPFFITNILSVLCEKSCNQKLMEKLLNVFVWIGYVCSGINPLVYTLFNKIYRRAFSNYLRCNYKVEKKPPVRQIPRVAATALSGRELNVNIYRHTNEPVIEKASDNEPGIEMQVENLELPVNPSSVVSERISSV
In words: biochemical. To be noted: for Ki: [3H]mesulergine, mean ± SD, read-out: h5-HT2C Receptor binding Ki ± SD. It is filed as binding.

Assay [3] addresses T3, human TAAR1 (Homo sapiens, UniProt Q96RJ0).
T3 construct: expressed in transfected cells; host or cells: HEK 293 cells
T3 sequence (Q96RJ0 1-339): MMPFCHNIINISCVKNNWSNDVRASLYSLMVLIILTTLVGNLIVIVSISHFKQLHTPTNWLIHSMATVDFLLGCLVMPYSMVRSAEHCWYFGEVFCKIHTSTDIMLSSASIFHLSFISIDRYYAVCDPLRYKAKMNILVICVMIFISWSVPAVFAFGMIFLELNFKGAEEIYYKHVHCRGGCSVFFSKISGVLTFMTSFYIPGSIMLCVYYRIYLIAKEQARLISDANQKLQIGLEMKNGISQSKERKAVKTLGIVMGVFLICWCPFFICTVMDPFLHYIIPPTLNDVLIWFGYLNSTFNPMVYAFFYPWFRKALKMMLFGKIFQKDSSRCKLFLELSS
In words: Activity at the human TAAR1 (cAMP assay, HEK 293 cells). It is filed as cell-based. As for the experimental part: Once 80–90% confluency was reached, the cells were collected by removing the medium, washing with PBS and then adding 5 ml of trypsin/EDTA solution for 5 min at 37°C. Next, 45 ml of medium was added and the entire mixture was transferred into a falcon tube. The tube was then centrifuged at room temperature for 3 min at 900 revolutions per minute (rpm). Next, the supernatant was removed in order to resuspend the remaining cell pellet in fresh medium to 5 × 10^5 cells/ml. Hundred microliter of the cells was transferred into a 96-well plate ([…]; BIOCOAT 6640, Becton Dickinson, Allschwil, Switzerland) and incubated for 20 h at 37°C.
For the cAMP assay, the aspirated medium was replaced with 50 μl PBS without Ca^2+ and Mg^2+ ions. Using snap inversion, the PBS was extracted and the plate was gently tapped against tissue. Next, 90 μl of Krebs-Ringer Bicarbonate buffer (KRB, Sigma-Aldrich) containing 1 mM IBMX was added and incubated for 60 min at 37°C and 5% CO2/95% air. Each test compound was examined in duplicate in a concentration range between 300 pM and 30 μM. A standard curve with a range of cAMP concentrations (0.13 nM–10 μM) was created for each 96-well plate. Each experiment was accompanied with a reference plate that included RO5256390, β-phenylethylamine and p-tyramine. The cells were exposed to either 30 μl of compound solution, 30 μl of β-phenylethylamine (as maximal response), or a basal control in PBS (containing 1 mM IBMX) for 40 min at 37°C. Next, under forceful shaking using black lids, the cells were exposed to 50 μl of 3× detection mix solution (composed of Ru-cAMP Alexa700 anti-cAMP antibody and lysis buffer) for 120 min at room temperature. Using the NanoScan reader (Innovate Optische Messtechnik, Berlin, Germany; 456 nm excitation wavelength; 630 and 700 nm emission wavelengths), the fluorescence was examined and the FRET signal was determined using the following equation; FRET (700 nm)- P × FRET (630 nm), where P = Ru (700 nm)/Ru (630 nm).

Assay [4] deals with T4, rat TAAR1 (Rattus norvegicus, UniProt Q923Y9).
T4 construct: expressed in transfected cells; host or cells: HEK 293 cells (membrane preparations)
T4 sequence (Q923Y9 whole entry): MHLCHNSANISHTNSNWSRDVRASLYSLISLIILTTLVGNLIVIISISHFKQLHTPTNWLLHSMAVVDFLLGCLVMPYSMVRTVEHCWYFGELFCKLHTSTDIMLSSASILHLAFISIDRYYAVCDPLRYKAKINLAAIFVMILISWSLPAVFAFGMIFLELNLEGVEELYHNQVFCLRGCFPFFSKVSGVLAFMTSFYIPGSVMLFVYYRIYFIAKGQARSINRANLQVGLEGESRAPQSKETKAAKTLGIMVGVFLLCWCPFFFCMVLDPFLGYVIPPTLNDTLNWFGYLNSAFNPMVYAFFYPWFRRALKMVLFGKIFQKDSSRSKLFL
In words: Radioligand binding at rat TAAR1 ([3H]RO5166017).

Assay [5] deals with T5, mouse TAAR1 (Mus musculus, UniProt Q923Y8).
T5 construct: expressed in transfected cells; host or cells: HEK 293 cells (membrane preparations)
T5 sequence (Q923Y8 whole entry): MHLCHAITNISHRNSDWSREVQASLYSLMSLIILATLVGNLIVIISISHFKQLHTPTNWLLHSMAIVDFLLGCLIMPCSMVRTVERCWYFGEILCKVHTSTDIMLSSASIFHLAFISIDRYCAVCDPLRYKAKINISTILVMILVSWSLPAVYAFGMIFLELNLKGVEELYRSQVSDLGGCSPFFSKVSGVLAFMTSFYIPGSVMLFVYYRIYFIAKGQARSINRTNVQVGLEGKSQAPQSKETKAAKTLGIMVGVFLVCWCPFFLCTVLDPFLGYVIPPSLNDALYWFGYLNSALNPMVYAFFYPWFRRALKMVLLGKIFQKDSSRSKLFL
In words: Radioligand binding at mouse TAAR1 ([3H]RO5166017).

Assay [6] has as its target T6, hα2A adrenergic receptor (Homo sapiens, UniProt P08913).
T6 construct: expressed in transfected cells; host or cells: Chinese hamster lung cells (membrane preparations)
T6 sequence (P08913 1-465): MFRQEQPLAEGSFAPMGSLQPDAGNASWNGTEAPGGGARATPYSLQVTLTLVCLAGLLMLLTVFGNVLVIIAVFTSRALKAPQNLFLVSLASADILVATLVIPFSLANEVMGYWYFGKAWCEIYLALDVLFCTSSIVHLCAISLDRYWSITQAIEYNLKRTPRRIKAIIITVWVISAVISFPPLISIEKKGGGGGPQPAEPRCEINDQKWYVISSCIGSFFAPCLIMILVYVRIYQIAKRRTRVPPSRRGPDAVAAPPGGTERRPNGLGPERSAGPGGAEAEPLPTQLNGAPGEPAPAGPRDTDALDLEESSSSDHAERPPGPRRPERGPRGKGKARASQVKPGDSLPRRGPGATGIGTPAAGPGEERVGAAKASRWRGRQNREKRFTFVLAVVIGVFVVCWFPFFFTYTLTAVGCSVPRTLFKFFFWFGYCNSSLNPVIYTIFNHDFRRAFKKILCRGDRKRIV
Put plainly: Radioligand binding at hα2A adrenergic receptor ([3H]rauwolscine).

The target of assay [7] is T7, dopaminergic hD2 receptor (Homo sapiens, UniProt P14416).
T7 construct: expressed in transfected cells; host or cells: HEK 293 cells (membrane preparations)
T7 sequence (P14416 whole entry): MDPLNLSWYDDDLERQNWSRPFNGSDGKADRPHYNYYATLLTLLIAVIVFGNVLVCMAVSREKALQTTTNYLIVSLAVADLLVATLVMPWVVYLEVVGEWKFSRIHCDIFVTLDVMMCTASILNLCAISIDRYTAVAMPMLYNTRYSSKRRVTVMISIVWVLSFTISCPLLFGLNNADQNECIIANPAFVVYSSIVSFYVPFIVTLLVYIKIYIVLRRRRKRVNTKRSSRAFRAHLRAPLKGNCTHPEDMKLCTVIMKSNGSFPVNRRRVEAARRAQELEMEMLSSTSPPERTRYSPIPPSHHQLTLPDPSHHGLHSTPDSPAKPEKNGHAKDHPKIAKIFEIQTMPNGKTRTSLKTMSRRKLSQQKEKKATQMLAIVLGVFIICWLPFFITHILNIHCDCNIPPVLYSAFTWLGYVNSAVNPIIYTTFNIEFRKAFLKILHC
Put plainly: Radioligand binding at dopaminergic hD2 receptor ([3H]spiperone).

Assay [8] deals with T8, hNET (Homo sapiens, UniProt P23975).
T8 construct: expressed in transfected cells; host or cells: HEK 293 cells (membrane preparations)
T8 sequence (P23975 whole entry): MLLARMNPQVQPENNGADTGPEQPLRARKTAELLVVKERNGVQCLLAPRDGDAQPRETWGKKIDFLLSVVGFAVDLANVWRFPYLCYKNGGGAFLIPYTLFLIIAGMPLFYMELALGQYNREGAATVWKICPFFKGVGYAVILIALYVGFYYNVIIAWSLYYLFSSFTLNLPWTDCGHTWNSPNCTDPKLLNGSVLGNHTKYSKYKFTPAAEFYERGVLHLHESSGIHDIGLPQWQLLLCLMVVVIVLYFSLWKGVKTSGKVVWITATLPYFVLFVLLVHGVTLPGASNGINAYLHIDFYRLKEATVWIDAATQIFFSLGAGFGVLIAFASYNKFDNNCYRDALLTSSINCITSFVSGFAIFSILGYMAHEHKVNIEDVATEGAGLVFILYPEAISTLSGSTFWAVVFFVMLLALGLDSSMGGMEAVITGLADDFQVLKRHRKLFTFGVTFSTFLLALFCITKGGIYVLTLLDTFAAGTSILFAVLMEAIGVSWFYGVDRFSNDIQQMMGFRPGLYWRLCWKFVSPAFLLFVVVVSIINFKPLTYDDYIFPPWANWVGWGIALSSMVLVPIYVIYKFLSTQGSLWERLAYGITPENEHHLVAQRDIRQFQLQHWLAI
Put plainly: Radioligand binding at hNET (N-methyl-[3H]nisoxetine).

For assay [9], the target named is T9, hDAT (Homo sapiens, UniProt Q01959).
T9 construct: expressed in transfected cells; host or cells: HEK 293 cells (membrane preparations)
T9 sequence (Q01959 whole entry): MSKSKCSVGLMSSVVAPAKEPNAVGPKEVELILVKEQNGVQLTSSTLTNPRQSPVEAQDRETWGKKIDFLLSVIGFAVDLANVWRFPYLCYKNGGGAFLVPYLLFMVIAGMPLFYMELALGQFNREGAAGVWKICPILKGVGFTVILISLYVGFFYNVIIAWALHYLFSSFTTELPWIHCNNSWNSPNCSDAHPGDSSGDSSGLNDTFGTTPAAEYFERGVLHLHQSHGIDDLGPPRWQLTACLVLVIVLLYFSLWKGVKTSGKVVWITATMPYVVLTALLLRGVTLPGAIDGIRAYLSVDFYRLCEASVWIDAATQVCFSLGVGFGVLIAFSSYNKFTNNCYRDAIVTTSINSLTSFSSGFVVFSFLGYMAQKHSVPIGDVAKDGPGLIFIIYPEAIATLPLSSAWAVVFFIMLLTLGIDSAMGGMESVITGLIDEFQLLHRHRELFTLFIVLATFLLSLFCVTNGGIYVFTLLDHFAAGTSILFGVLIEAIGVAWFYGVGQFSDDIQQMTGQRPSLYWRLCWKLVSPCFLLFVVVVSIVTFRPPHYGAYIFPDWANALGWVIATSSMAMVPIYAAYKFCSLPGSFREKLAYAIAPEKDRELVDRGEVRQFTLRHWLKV
In words: Radioligand binding at hDAT ([3H]WIN35,428).

Assay [10] deals with T10, hSERT (Homo sapiens, UniProt P31645).
T10 construct: expressed in transfected cells; host or cells: HEK 293 cells (membrane preparations)
T10 sequence (P31645 whole entry): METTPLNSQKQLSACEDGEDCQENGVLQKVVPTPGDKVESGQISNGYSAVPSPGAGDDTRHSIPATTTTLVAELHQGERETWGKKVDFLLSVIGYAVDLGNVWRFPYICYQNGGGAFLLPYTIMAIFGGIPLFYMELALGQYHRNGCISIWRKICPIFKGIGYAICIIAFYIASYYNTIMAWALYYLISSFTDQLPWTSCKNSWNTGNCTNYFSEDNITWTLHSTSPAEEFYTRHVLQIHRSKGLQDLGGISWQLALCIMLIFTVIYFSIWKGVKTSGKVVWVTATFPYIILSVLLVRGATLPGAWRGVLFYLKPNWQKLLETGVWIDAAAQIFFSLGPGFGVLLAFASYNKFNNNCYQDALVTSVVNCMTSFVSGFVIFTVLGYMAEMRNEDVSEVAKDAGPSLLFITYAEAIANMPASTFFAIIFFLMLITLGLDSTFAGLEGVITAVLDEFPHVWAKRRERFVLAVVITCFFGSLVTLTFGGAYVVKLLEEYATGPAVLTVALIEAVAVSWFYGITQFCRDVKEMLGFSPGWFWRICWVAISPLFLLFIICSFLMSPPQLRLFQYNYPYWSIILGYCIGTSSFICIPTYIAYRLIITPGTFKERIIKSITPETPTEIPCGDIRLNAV
In words: Radioligand binding at hSERT ([3H]citalopram).

In assay [11] the target is human 5-HT2B receptor (Homo sapiens, UniProt P41595). Conditions: for Emax: HEK293, read-out: h5-HT2B Activation efficacy max ± SD, relative to 5-HT = 100%; for EC50: h5-HT2B Activation potency EC50 ± SD, HEK 293 cells, calcium FLIPR, mean ± SD.
human 5-HT2B receptor, sequence (P41595 whole entry): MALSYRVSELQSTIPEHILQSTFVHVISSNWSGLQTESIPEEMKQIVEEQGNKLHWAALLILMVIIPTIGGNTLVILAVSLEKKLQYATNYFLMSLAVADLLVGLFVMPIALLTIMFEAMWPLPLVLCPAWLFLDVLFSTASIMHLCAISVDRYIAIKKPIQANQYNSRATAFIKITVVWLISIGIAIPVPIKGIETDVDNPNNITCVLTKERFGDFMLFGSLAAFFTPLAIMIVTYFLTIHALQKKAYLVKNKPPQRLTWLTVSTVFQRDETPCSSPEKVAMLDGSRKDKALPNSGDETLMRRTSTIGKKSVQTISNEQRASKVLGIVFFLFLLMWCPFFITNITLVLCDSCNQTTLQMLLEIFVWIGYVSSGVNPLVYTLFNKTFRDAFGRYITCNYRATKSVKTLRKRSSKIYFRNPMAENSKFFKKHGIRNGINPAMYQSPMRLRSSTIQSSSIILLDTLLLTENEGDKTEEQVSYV

T1 sequence (P28223 whole entry): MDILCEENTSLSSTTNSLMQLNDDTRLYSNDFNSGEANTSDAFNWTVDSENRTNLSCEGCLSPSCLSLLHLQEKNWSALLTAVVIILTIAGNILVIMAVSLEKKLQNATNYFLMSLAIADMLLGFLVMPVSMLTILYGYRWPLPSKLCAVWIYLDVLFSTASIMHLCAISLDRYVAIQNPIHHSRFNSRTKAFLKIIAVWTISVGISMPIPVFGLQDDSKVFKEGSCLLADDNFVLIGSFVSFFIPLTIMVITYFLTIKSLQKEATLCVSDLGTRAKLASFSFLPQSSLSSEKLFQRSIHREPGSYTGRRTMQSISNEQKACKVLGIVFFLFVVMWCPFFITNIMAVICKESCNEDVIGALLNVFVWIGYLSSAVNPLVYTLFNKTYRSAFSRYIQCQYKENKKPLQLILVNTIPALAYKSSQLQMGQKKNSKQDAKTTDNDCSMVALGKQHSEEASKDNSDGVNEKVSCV

Regarding `COc1cc(CCN)cc(OC)c1OC(F)(F)F` [compound 13, 4-trifluoromethoxy-3,5-dimethoxyphenethylamine], the “Selectivity 5-HT2A vs. 5-HT1A” value in assay [1] came to 7.9. Further, the “Selectivity 5-HT2A vs. 5-HT2C” value in assay [1] amounted to 1.0. For the same compound, the Ki is 0.28 ± 0.1 µM in assay [1]; 0.29 ± 0.1 µM in assay [2]; 0.17 ± 0.01 µM in assay [4]; 1.9 µM in assay [5]; 0.45 ± 0.06 µM in assay [6]; > 6.3 µM in [7]. Also, the Ki in assay [8] was > 9.7 µM; in assay [9], > 8.5 µM; in assay [10], > 7.5 µM. The “Higher affinity at the 5-HT2A receptor compared to mescaline (5)” value in assay [1] (ratio of Ki values) is reported as 17- to 63 fold. Also, the “Higher affinity at the 5-HT2C receptor than mescaline (5)” value in assay [2] is on record as 19- to 34 fold. Also, the concentration for a half-maximal effect (EC50) in [3] was > 10 µM; in assay [11] it was 0.088 ± 0.02 µM. For the same compound, the Emax in [11] was determined as 45 ± 6%.
Take `COc1cc(CC(C)N)cc(OC)c1OC(F)F` (stereo not shown) [compound 14, 4-difluoromethoxy-3,5-dimethoxyamphetamine]: the “Selectivity 5-HT2A vs. 5-HT2C” value in assay [1] is 2.6. Further, the Ki in assay [1] was 1.4 µM; in assay [2] it was 3.7 µM; in assay [4], 0.38 ± 0.02 µM; in [5] it was 1 µM; in [6], 2.6 µM; in assay [7] it was > 6.3 µM. The inhibition constant (Ki) in [8] is > 9.7 µM; in [9] it was > 8.5 µM; in assay [10] it was > 7.5 µM. For the same compound, the figures for the EC50 in assay [3] and in [11] were > 10 µM and 0.15 ± 0.1 µM, respectively. The Emax in [11] lay in the range of 18 to 29%.
As for `COc1cc(CCN)cc(OC)c1OCC(F)(F)F` [compound 18, 3,5-dimethoxy-4-(2,2,2-trifluoroethoxy)phenethylamine], the “Selectivity 5-HT2A vs. 5-HT2C” value in [1] was found to be 0.9. Moreover, the inhibition constant (Ki) in [1] was 1.3 µM; in [2], 1.2 µM; in [4], 1.2 µM; in assay [5], > 4.2 µM; in assay [6] it was 2.3 µM; in assay [7], > 6.3 µM. Besides, the values for the inhibitory constant (Ki) in assay [8], in [9] and in assay [10] were > 9.7 µM, > 8.5 µM and > 7.5 µM, respectively. For the same compound, the figures for the half-maximal effective concentration (EC50) in assay [3] and in assay [11] were > 10 µM and 0.21 ± 0.13 µM, respectively. In assay [11], the Emax was found to be 29 ± 14%.
On to `COc1cc(CCN)cc(OC)c1OC(CF)CF` [compound 23, 3,5-dimethoxy-4-(1,3-difluoroprop-2-yloxy)phenethylamine], for which the Ki is > 12 µM in assay [1]; > 10 µM in [2]; > 4.7 µM in assay [4]; > 4.2 µM in assay [5]; 2.7 µM in assay [6]; > 6.3 µM in assay [7]. Further, the inhibitory constant (Ki) is > 9.7 µM in [8], > 8.5 µM in [9] and > 7.5 µM in assay [10]. Moreover, the half-maximal effective concentration (EC50) in assay [3] and in [11] was > 10 µM in each case.
Take `COc1cc(CCN)cc(OC)c1OCCCF` [compound 25, 3,5-dimethoxy-4-(3-fluoropropoxy)-phenethylamine]: the “Selectivity 5-HT2A vs. 5-HT1A” value in [1] was <1. In addition, the “Selectivity 5-HT2A vs. 5-HT2C” value in assay [1] was 0.6. In addition, the Ki in [1] was 9.3 µM; in assay [2], 5.3 µM; in assay [4] it was 1.7 µM; in assay [5], > 4.2 µM; in assay [6], 2.9 µM; in assay [7], > 6.3 µM. Also, the Ki in assay [8] is > 9.7 µM; in [9], > 8.5 µM; in [10], > 7.5 µM. Besides, the EC50 in assay [3] and in assay [11] was > 10 µM throughout.
For the compound `COc1cc(CCN)cc(OC)c1OCCC(F)(F)F` [compound 26, 3,5-dimethoxy-4-(3,3,3-trifluoropropoxy)phenethylamine], in [1], the “Selectivity 5-HT2A vs. 5-HT1A” value was >1. In addition, in [1], the “Selectivity 5-HT2A vs. 5-HT2C” value is 1.1. Further, the Ki was 5 µM in assay [1]; 5.3 µM in assay [2]; 0.91 ± 0.09 µM in assay [4]; > 4.2 µM in assay [5]; 2.3 µM in assay [6]; > 6.3 µM in [7]. The figures for the Ki in assay [8], in [9] and in assay [10] were > 9.7 µM, > 8.5 µM and > 7.5 µM, respectively. The EC50 in [3] and in assay [11] was > 10 µM in each case.
